Results: ChEMBL document CHEMBL3259797, “Radiosyntheses and in vivo evaluation of carbon-11 PET tracers for PDE10A in the brain of rodent and nonhuman primate” (Bioorg Med Chem, 2014)

Experiments:
Nucleic Acid = test: Ratio of drug level in striatum to cerebellum in Sprague-Dawley rat at 14.8 to 18.5 MBq, iv measured at 30 mins post-injection by gamma counting analysis; type: ADME, organism-based; conditions: in vivo, 0.5 h
Plasma [1] = test: Drug metabolism in iv dosed cynomolgus monkey plasma assessed as retention time by HPLC analysis; type: ADME, organism-based, Macaca fascicularis; conditions: in vivo
Brain [2] = test: Biodistribution in Sprague-Dawley rat brain at 14.8 to 18.5 MBq, iv measured at 5 mins post-injection by gamma counting analysis; type: ADME, organism-based; conditions: in vivo
Rattus norvegicus [3] = test: Biodistribution in Sprague-Dawley rat fat at 14.8 to 18.5 MBq, iv measured at 5 mins post-injection by gamma counting analysis; type: ADME, organism-based, Adipose tissue; conditions: in vivo
Lung [4] = test: Biodistribution in Sprague-Dawley rat lung at 14.8 to 18.5 MBq, iv measured at 60 mins post-injection by gamma counting analysis; type: ADME, organism-based; conditions: in vivo, 1 h
Blood [5] = test: Biodistribution in Sprague-Dawley rat blood at 14.8 to 18.5 MBq, iv measured at 5 mins post-injection by gamma counting analysis; type: ADME, organism-based; conditions: in vivo
Blood [6] = test: Biodistribution in Sprague-Dawley rat blood at 14.8 to 18.5 MBq, iv measured at 60 mins post-injection by gamma counting analysis; type: ADME, organism-based; conditions: in vivo, 1 h
Striatum [7] = test: Biodistribution in Sprague-Dawley rat striatum at 14.8 to 18.5 MBq, iv measured at 5 mins post-injection by gamma counting analysis; type: ADME, organism-based; conditions: in vivo
Kidney [8] = test: Biodistribution in Sprague-Dawley rat kidney at 14.8 to 18.5 MBq, iv treated with MP-10 for 5 mins prior to compound administration measured at 30 mins post-injection by gamma counting analysis; type: ADME, organism-based; conditions: in vivo, 0.5 h
Plasma [9] = test: Metabolic stability in iv dosed cynomolgus monkey plasma protein pellet under deproteinated condition assessed as compound remaining measured at 5 to 60 mins by HPLC analysis; type: ADME, organism-based, Macaca fascicularis; conditions: in vivo
Lung [10] = test: Biodistribution in Sprague-Dawley rat lung at 14.8 to 18.5 MBq, iv measured at 5 mins post-injection by gamma counting analysis; type: ADME, organism-based; conditions: in vivo
Rattus norvegicus [11] = test: Biodistribution in Sprague-Dawley rat fat at 14.8 to 18.5 MBq, iv measured at 60 mins post-injection by gamma counting analysis; type: ADME, organism-based, Adipose tissue; conditions: in vivo, 1 h
Cerebellum [12] = test: Biodistribution in Sprague-Dawley rat cerebellum at 14.8 to 18.5 MBq, iv treated with MP-10 for 5 mins prior to compound administration measured at 30 mins post-injection by gamma counting analysis; type: ADME, organism-based; conditions: in vivo, 0.5 h
Muscle tissue [13] = test: Biodistribution in Sprague-Dawley rat muscle at 14.8 to 18.5 MBq, iv treated with MP-10 for 5 mins prior to compound administration measured at 30 mins post-injection by gamma counting analysis; type: ADME, organism-based; conditions: in vivo, 0.5 h
Liver [14] = test: Biodistribution in Sprague-Dawley rat liver at 14.8 to 18.5 MBq, iv treated with MP-10 for 5 mins prior to compound administration measured at 30 mins post-injection by gamma counting analysis; type: ADME, organism-based; conditions: in vivo, 0.5 h
Lung [15] = test: Biodistribution in Sprague-Dawley rat lung at 14.8 to 18.5 MBq, iv treated with MP-10 for 5 mins prior to compound administration measured at 30 mins post-injection by gamma counting analysis; type: ADME, organism-based; conditions: in vivo, 0.5 h
Liver [16] = test: Biodistribution in Sprague-Dawley rat liver at 14.8 to 18.5 MBq, iv measured at 30 mins post-injection by gamma counting analysis; type: ADME, organism-based; conditions: in vivo, 0.5 h
Plasma [17] = test: Metabolic stability in iv dosed cynomolgus monkey plasma assessed as compound remaining measured at 5 to 60 mins by HPLC analysis; type: ADME, organism-based, Macaca fascicularis; conditions: in vivo
Blood [18] = test: Biodistribution in Sprague-Dawley rat blood at 14.8 to 18.5 MBq, iv treated with MP-10 for 5 mins prior to compound administration measured at 30 mins post-injection by gamma counting analysis; type: ADME, organism-based; conditions: in vivo, 0.5 h
[19] = Biodistribution in cynomolgus monkey cerebellum at 260 to 370 MBq, iv measured at 20 to 100 mins post-injection by microPET analysis; type: ADME, organism-based, Macaca fascicularis; conditions: in vivo
Liver [20] = test: Biodistribution in Sprague-Dawley rat liver at 14.8 to 18.5 MBq, iv measured at 5 mins post-injection by gamma counting analysis; type: ADME, organism-based; conditions: in vivo
Muscle tissue [21] = test: Biodistribution in Sprague-Dawley rat muscle at 14.8 to 18.5 MBq, iv measured at 5 mins post-injection by gamma counting analysis; type: ADME, organism-based; conditions: in vivo
Kidney [22] = test: Biodistribution in Sprague-Dawley rat kidney at 14.8 to 18.5 MBq, iv measured at 5 mins post-injection by gamma counting analysis; type: ADME, organism-based; conditions: in vivo
Muscle tissue [23] = test: Biodistribution in Sprague-Dawley rat muscle at 14.8 to 18.5 MBq, iv measured at 30 mins post-injection by gamma counting analysis; type: ADME, organism-based; conditions: in vivo, 0.5 h
Rattus norvegicus [24] = test: Biodistribution in Sprague-Dawley rat fat at 14.8 to 18.5 MBq, iv treated with MP-10 for 5 mins prior to compound administration measured at 30 mins post-injection by gamma counting analysis; type: ADME, organism-based, Adipose tissue; conditions: in vivo, 0.5 h
Heart [25] = test: Biodistribution in Sprague-Dawley rat heart at 14.8 to 18.5 MBq, iv measured at 60 mins post-injection by gamma counting analysis; type: ADME, organism-based; conditions: in vivo, 1 h
Rattus norvegicus [26] = test: Biodistribution in Sprague-Dawley rat fat at 14.8 to 18.5 MBq, iv measured at 30 mins post-injection by gamma counting analysis; type: ADME, organism-based, Adipose tissue; conditions: in vivo, 0.5 h
[27] = Biodistribution in cynomolgus monkey hippocampus at 260 to 370 MBq, iv measured at 20 to 100 mins post-injection by microPET analysis; type: ADME, organism-based, Macaca fascicularis; conditions: in vivo
[28] = Drug metabolism in iv dosed cynomolgus monkey plasma assessed as compound remaining measured at 15 mins post-injection by HPLC analysis; type: ADME, organism-based, Macaca fascicularis; conditions: read-out: Stability
Blood [29] = test: Biodistribution in Sprague-Dawley rat blood at 14.8 to 18.5 MBq, iv measured at 30 mins post-injection by gamma counting analysis; type: ADME, organism-based; conditions: in vivo, 0.5 h
Striatum [30] = test: Biodistribution in Sprague-Dawley rat striatum at 14.8 to 18.5 MBq, iv measured at 60 mins post-injection by gamma counting analysis; type: ADME, organism-based; conditions: in vivo, 1 h
Liver [31] = test: Biodistribution in Sprague-Dawley rat liver at 14.8 to 18.5 MBq, iv measured at 60 mins post-injection by gamma counting analysis; type: ADME, organism-based; conditions: in vivo, 1 h
Muscle tissue [32] = test: Biodistribution in Sprague-Dawley rat muscle at 14.8 to 18.5 MBq, iv measured at 60 mins post-injection by gamma counting analysis; type: ADME, organism-based; conditions: in vivo, 1 h
[33] = Biodistribution in cynomolgus monkey white matter at 260 to 370 MBq, iv measured at 20 to 100 mins post-injection by microPET analysis; type: ADME, organism-based, Macaca fascicularis; conditions: in vivo
Heart [34] = test: Biodistribution in Sprague-Dawley rat heart at 14.8 to 18.5 MBq, iv measured at 30 mins post-injection by gamma counting analysis; type: ADME, organism-based; conditions: in vivo, 0.5 h
[35] = Metabolic stability in iv dosed cynomolgus monkey RBC assessed as compound remaining measured at 5 to 60 mins by HPLC analysis; type: ADME, organism-based, Macaca fascicularis, Erythrocyte; conditions: in vivo
Cerebellum [36] = test: Biodistribution in Sprague-Dawley rat cerebellum at 14.8 to 18.5 MBq, iv measured at 5 mins post-injection by gamma counting analysis; type: ADME, organism-based; conditions: in vivo
Brain [37] = test: Biodistribution in Sprague-Dawley rat brain at 14.8 to 18.5 MBq, iv measured at 30 mins post-injection by gamma counting analysis; type: ADME, organism-based; conditions: in vivo, 0.5 h
Lung [38] = test: Biodistribution in Sprague-Dawley rat lung at 14.8 to 18.5 MBq, iv measured at 30 mins post-injection by gamma counting analysis; type: ADME, organism-based; conditions: in vivo, 0.5 h
Striatum [39] = test: Biodistribution in Sprague-Dawley rat striatum at 14.8 to 18.5 MBq, iv measured at 30 mins post-injection by gamma counting analysis; type: ADME, organism-based; conditions: in vivo, 0.5 h

Row | Compound | Ratio (Nucleic Acid) | Retention_time (Plasma [1]) [min] | Drug uptake (Brain [2]) [% ID/g] | Drug uptake (Rattus norvegicus [3]) [% ID/g] | Drug uptake (Lung [4]) [% ID/g] | Drug uptake (Blood [5]) [% ID/g] | Drug uptake (Blood [6]) [% ID/g] | Drug uptake (Striatum [7]) [% ID/g] | Drug uptake (Kidney [8]) [% ID/g] | Stability (Plasma [9]) [%] | Drug uptake (Lung [10]) [% ID/g] | Drug uptake (Rattus norvegicus [11]) [% ID/g] | Drug uptake (Cerebellum [12]) [% ID/g] | Drug uptake (Muscle tissue [13]) [% ID/g] | Drug uptake (Liver [14]) [% ID/g] | Drug uptake (Lung [15]) [% ID/g] | Drug uptake (Liver [16]) [% ID/g] | Stability (Plasma [17]) [%] | Drug uptake (Blood [18]) [% ID/g] | Drug uptake [19] | further results
1 | Cn1cc(-c2ccncc2)c(-c2ccc(OCc3cc(O[11CH3])c4ccccc4n3)cc2)n1 | 3.8 | 9 | 0.21 | 0.242 | 0.163 | 0.268 | 0.152 | 0.352 | 1.072 | 5 | 0.89 | 0.278 | 0.112 | 0.224 | 4.723 | 0.362 | 10.085 | 65 | 0.343 | Active | Drug uptake (Liver [20]): 7.08 % ID/g; Drug uptake (Muscle tissue [21]): 0.258 % ID/g; Drug uptake (Kidney [22]): 2.34 % ID/g; Drug uptake (Muscle tissue [23]): 0.133 % ID/g; Drug uptake (Rattus norvegicus [24]): 0.697 % ID/g; Drug uptake (Heart [25]): 0.121 % ID/g; Drug uptake (Rattus norvegicus [26]): 0.371 % ID/g; Drug uptake [27]: Active; remaining at 0.25 h [28]: 75%; Drug uptake (Blood [29]): 0.192 % ID/g; Drug uptake (Striatum [30]): 0.201 % ID/g; Drug uptake (Liver [31]): 8.941 % ID/g; Drug uptake (Muscle tissue [32]): 0.084 % ID/g; Drug uptake [33]: Active; Drug uptake (Heart [34]): 0.187 % ID/g; Stability [35]: 25%; Drug uptake (Cerebellum [36]): 0.215 % ID/g; Drug uptake (Brain [37]): 0.087 % ID/g; Drug uptake (Lung [38]): 0.233 % ID/g; Drug uptake (Striatum [39]): 0.23 % ID/g
2 | Cn1cc(-c2ccncc2)c(-c2ccc(OCc3nc4ccccc4cc3O[11CH3])cc2)n1 | 4.6 | 8 | 0.231 | 0.935 | 0.299 | 0.679 | 0.275 | 0.488 | 1.523 | 5 | 1.602 | 0.5 | 0.119 | 0.257 | 5.781 | 0.404 | 7.345 | 65 | 0.407 | Active | Drug uptake (Liver [20]): 11.005 % ID/g; Drug uptake (Muscle tissue [21]): 0.412 % ID/g; Drug uptake (Kidney [22]): 4.354 % ID/g; Drug uptake (Muscle tissue [23]): 0.244 % ID/g; Drug uptake (Rattus norvegicus [24]): 1.353 % ID/g; Drug uptake (Heart [25]): 0.199 % ID/g; Drug uptake (Rattus norvegicus [26]): 0.851 % ID/g; Drug uptake [27]: Active; remaining at 0.25 h [28]: 87%; Drug uptake (Blood [29]): 0.321 % ID/g; Drug uptake (Striatum [30]): 0.38 % ID/g; Drug uptake (Liver [31]): 6.398 % ID/g; Drug uptake (Muscle tissue [32]): 0.142 % ID/g; Drug uptake [33]: Active; Drug uptake (Heart [34]): 0.296 % ID/g; Stability [35]: 25%; Drug uptake (Cerebellum [36]): 0.229 % ID/g; Drug uptake (Brain [37]): 0.133 % ID/g; Drug uptake (Lung [38]): 0.408 % ID/g; Drug uptake (Striatum [39]): 0.452 % ID/g
